Reference: patent US8580825B2, “Oxadiazole inhibitors of leukotriene production” (Boehringer Ingelheim International GmbH, priority 2010, dated 2013)

Experiments:
[1] = target: T1, recombinant human FLAP protein (Homo sapiens, UniProt P20292); assay: FLAP binding assay (Scintillation Proximity Assay, displacement of [125I]L-691,831); conditions: read-out: FLAP SPA IC50
T1 construct: made in house; host or cells: Sf9 insect cells (100,000xg membrane fraction used)
T1 sequence (P20292 1-161): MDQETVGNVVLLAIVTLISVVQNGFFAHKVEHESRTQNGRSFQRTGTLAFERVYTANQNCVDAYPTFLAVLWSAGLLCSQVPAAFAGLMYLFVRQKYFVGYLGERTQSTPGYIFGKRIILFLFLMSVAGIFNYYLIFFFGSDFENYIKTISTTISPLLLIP
In short: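 Scintillation proximity displacement of [125I]L-691,831 (0.08 nM) from membranes of sf9 cells expressing recombinant human FLAP (5 μg/well) on WGA SPA beads, pH 7.5 Tris buffer. Plates shaken 2 h before counting. Non-specific binding defined with 10 μM unlabelled L-691,831.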

[2] = test system: synthesis of LTB4 in human whole blood; assay: human whole blood LTB4 production inhibition assay; assay type: cell-based; conditions: calcimycin stimulated, read-out: hWB LTB4 IC50
In short: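 Heparinized human whole blood was preincubated with compound for 15 min at 37° C, then stimulated with calcimycin (20 μM final, in PBS pH 7.4) for a further 30 min at 37° C. Plasma LTB4 was quantified by antibody-based homogeneous time-resolved fluorescence.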

Compound	IC50 [1]	IC50 [2]
CC(C)[C@](C)(c1ccc(-c2cnc(N)cn2)nc1)c1noc(-c2cnn(CC(=O)N(C)C)c2)n1 [Example 112, 2-[4-(3-{(R)-[6-(5-Amino-pyrazin-2-yl)-pyridin-3-yl]-1,2-dimethyl-propyl}-[1,2,4]oxadiazol-5-yl)-pyrazol-1-yl]-N,N-dimethyl-acetamide]	0.0048 µM	0.071 µM
CC(C)[C@](C)(c1ccc(-c2cnc(N)cn2)nc1)c1noc(-c2cnn(C3COC3)c2)n1 [Example 113, 5-(5-{(R)-1,2-Dimethyl-1-[5-(1-oxetan-3-yl-1H-pyrazol-4-yl)-[1,2,4]oxadiazol-3-yl]-propyl}-pyridin-2-yl)-pyrazin-2-ylamine]	0.004 µM	0.012 µM
C[C@@](c1ccc(-c2ccc(N)nc2)nc1)(c1noc(-c2cnn(C(CO)CO)c2)n1)C1CC1 [Example 114, 2-(4-{3-[(R)-1-(6′-Amino-[2,3′]bipyridinyl-5-yl)-1-cyclopropyl-ethyl]-[1,2,4]oxadiazol-5-yl}-pyrazol-1-yl)-propane-1,3-diol]	0.052 µM	0.85 µM
C[C@@](c1ccc(-c2ccc(N)nc2)nc1)(c1noc(-c2cnn(C3COC3)c2)n1)C1CC1 [Example 115, 5-{(R)-1-Cyclopropyl-1-[5-(1-oxetan-3-yl-1H-pyrazol-4-yl)-[1,2,4]oxadiazol-3-yl]-ethyl}-[2,3′]bipyridinyl-6′-ylamine]	0.024 µM	0.11 µM
C[C@](c1ccc(-c2ccc(N)nc2)nc1)(c1noc(-c2cnn(C3COC3)c2)n1)C1CC1 [Example 116, 5-{(S)-1-Cyclopropyl-1-[5-(1-oxetan-3-yl-1H-pyrazol-4-yl)-[1,2,4]oxadiazol-3-yl]-ethyl}-[2,3′]bipyridinyl-6′-ylamine]	0.36 µM	2 µM
C[C@@](c1ccc(-c2cnc(N)nc2)nc1)(c1noc(-c2cn[nH]c2)n1)C1CC1 [Example 117, 5-(5-{(R)-1-Cyclopropyl-1-[5-(1H-pyrazol-4-yl)-[1,2,4]oxadiazol-3-yl]-ethyl}-pyridin-2-yl)-pyrimidin-2-ylamine]	0.0087 µM	0.086 µM
Cn1cc(-c2nc(C(C)(c3ccc(-c4ccc(N)nc4)nc3)C3CC3)no2)cn1 (stereo not shown) [Example 118, 5-{1-Cyclopropyl-1-[5-(1-methyl-1H-pyrazol-4-yl)-[1,2,4]oxadiazol-3-yl]-ethyl}-[2,3′]bipyridinyl-6′-ylamine]	0.047 µM	0.21 µM
CC(C)[C@](C)(c1ccc(-c2cnc(N)[nH]c2=O)nc1)c1noc(-c2cnn(CC(C)(C)O)c2)n1 [Example 119, 2-Amino-5-[5-((R)-1-{5-[1-(2-hydroxy-2-methyl-propyl)-1H-pyrazol-4-yl]-[1,2,4]oxadiazol-3-yl}-1,2-dimethyl-propyl)-pyridin-2-yl]-3H-pyrimidin-4-one]	0.0034 µM	2.2 µM
CN(C)CCn1cc(-c2nc(C(C)(c3ccc(-c4ccc(N)nc4)nc3)C3CC3)no2)cn1 (stereo not shown) [Example 120, 5-(1-Cyclopropyl-1-{5-[1-(2-dimethylamino-ethyl)-1H-pyrazol-4-yl]-[1,2,4]oxadiazol-3-yl}-ethyl)-[2,3′]bipyridinyl-6′-ylamine]	0.042 µM	0.3 µM
CO[C@H]1CCN(C(=O)Cn2cc(-c3nc([C@@](C)(c4ccc(-c5cnc(N)nc5)nc4)C4CC4)no3)cn2)C1 [Example 121, 2-[4-(3-{(R)-1-[6-(2-Amino-pyrimidin-5-yl)-pyridin-3-yl]-1-cyclopropyl-ethyl}-[1,2,4]oxadiazol-5-yl)-pyrazol-1-yl]-1-((S)-3-methoxy-pyrrolidin-1-yl)-ethanone]	0.067 µM	0.22 µM
CN(C)C(=O)Cn1cc(-c2nc([C@@](C)(c3ccc(-c4cnc(N)cn4)nc3)C3CC3)no2)cn1 [Example 122, 2-[4-(3-{(R)-1-[6-(5-Amino-pyrazin-2-yl)-pyridin-3-yl]-1-cyclopropyl-ethyl}-[1,2,4]oxadiazol-5-yl)-pyrazol-1-yl]-N,N-dimethyl-acetamide]	0.034 µM	0.45 µM
CN(C)C(=O)Cn1cc(-c2nc([C@](C)(c3ccc(-c4cnc(N)cn4)nc3)C3CC3)no2)cn1 [Example 123, 2-[4-(3-{(S)-1-[6-(5-Amino-pyrazin-2-yl)-pyridin-3-yl]-1-cyclopropyl-ethyl}-[1,2,4]oxadiazol-5-yl)-pyrazol-1-yl]-N,N-dimethyl-acetamide]	0.3 µM	3.3 µM
CN(C)CCn1cc(-c2nc([C@@](C)(c3ccc(-c4cnc(N)cn4)nc3)C3CC3)no2)cn1 [Example 124, 5-[5-((R)-1-Cyclopropyl-1-{5-[1-(2-dimethylamino-ethyl)-1H-pyrazol-4-yl]-[1,2,4]oxadiazol-3-yl}-ethyl)-pyridin-2-yl]-pyrazin-2-ylamine]	0.018 µM	0.06 µM
CN(C)CCn1cc(-c2nc([C@](C)(c3ccc(-c4cnc(N)cn4)nc3)C3CC3)no2)cn1 [Example 125, 5-[5-((S)-1-Cyclopropyl-1-{5-[1-(2-dimethylamino-ethyl)-1H-pyrazol-4-yl]-[1,2,4]oxadiazol-3-yl}-ethyl)-pyridin-2-yl]-pyrazin-2-ylamine]	0.12 µM	0.37 µM
COCCn1cc(-c2nc([C@@](C)(c3ccc(-c4cnc(N)cn4)nc3)C3CC3)no2)cn1 [Example 126, 5-[5-((R)-1-Cyclopropyl-1-{5-[1-(2-methoxy-ethyl)-1H-pyrazol-4-yl]-[1,2,4]oxadiazol-3-yl}-ethyl)-pyridin-2-yl]-pyrazin-2-ylamine]	0.0088 µM	0.025 µM
COCCn1cc(-c2nc([C@](C)(c3ccc(-c4cnc(N)cn4)nc3)C3CC3)no2)cn1 [Example 127, 5-[5-((S)-1-Cyclopropyl-1-{5-[1-(2-methoxy-ethyl)-1H-pyrazol-4-yl]-[1,2,4]oxadiazol-3-yl}-ethyl)-pyridin-2-yl]-pyrazin-2-ylamine]	0.22 µM	0.41 µM
CC(C)[C@](C)(c1ccc(-c2cnc(N)nc2)nc1)c1noc(-c2cnn(CCS(C)(=O)=O)c2)n1 [Example 128, 5-[5-((R)-1-{5-[1-(2-Methanesulfonyl-ethyl)-1H-pyrazol-4-yl]-[1,2,4]oxadiazol-3-yl}-1,2-dimethyl-propyl)-pyridin-2-yl]-pyrimidin-2-ylamine]	0.01 µM	0.27 µM
CC(C)[C@](C)(c1ccc(-c2cnc(N)nc2)nc1)c1noc(-c2cnn(CC#N)c2)n1 [Example 129, [4-(3-{(R)-1-[6-(2-Amino-pyrimidin-5-yl)-pyridin-3-yl]-1,2-dimethyl-propyl}-[1,2,4]oxadiazol-5-yl)-pyrazol-1-yl]-acetonitrile]	0.0081 µM	0.019 µM
CNc1cnc(-c2ccc(C(C)(c3noc(-c4cnn(CC(C)(C)O)c4)n3)C3CC3)cn2)cn1 (stereo not shown) [Example 130, 1-[4-(3-{1-Cyclopropyl-1-[6-(5-methylamino-pyrazin-2-yl)-pyridin-3-yl]-ethyl}-[1,2,4]oxadiazol-5-yl)-pyrazol-1-yl]-2-methyl-propan-2-ol]	0.015 µM	0.094 µM
CC(C)[C@](C)(c1ccc(-c2ccc(N)nc2)nc1)c1noc(-c2cnn(C3COC3)c2)n1 [Example 131, 5-{(R)-1,2-Dimethyl-1-[5-(1-oxetan-3-yl-1H-pyrazol-4-yl)-[1,2,4]oxadiazol-3-yl]-propyl}-[2,3′]bipyridinyl-6′-ylamine]	0.0056 µM	0.039 µM
CC(C)[C@](C)(c1ccc(-c2ccc(N)nc2)nc1)c1noc(-c2cnn(CC(=O)N(C)C)c2)n1 [Example 132, 2-(4-{3-[(R)-1-(6′-Amino-[2,3′]bipyridinyl-5-yl)-1,2-dimethyl-propyl]-[1,2,4]oxadiazol-5-yl}-pyrazol-1-yl)-N,N-dimethyl-acetamide]	0.012 µM	0.13 µM
COCCn1cc(-c2nc([C@@](C)(c3ccc(-c4ccc(N)nc4)nc3)C(C)C)no2)cn1 [Example 133, 5-((R)-1-{5-[1-(2-Methoxy-ethyl)-1H-pyrazol-4-yl]-[1,2,4]oxadiazol-3-yl}-1,2-dimethyl-propyl)-[2,3′]bipyridinyl-6′-ylamine]	0.0075 µM	0.03 µM
C[C@@](c1ccc(-c2cnc(N)nc2)nc1)(c1noc(-c2cnc(N3CCNCC3)cn2)n1)C1CC1 [Example 134, 5-(5-{(R)-1-Cyclopropyl-1-[5-(3,4,5,6-tetrahydro-2H-[1,2′]bipyrazinyl-5′-yl)-[1,2,4]oxadiazol-3-yl]-ethyl}-pyridin-2-yl)-pyrimidin-2-ylamine]	0.0072 µM	0.31 µM
CC(C)[C@](C)(c1ccc(-c2ccc(N)nc2)nc1)c1noc(-c2cnn(CC(C)(C)O)c2)n1 [Example 136, 1-(4-{3-[(R)-1-(6′-Amino-[2,3′]bipyridinyl-5-yl)-1,2-dimethyl-propyl]-[1,2,4]oxadiazol-5-yl}-pyrazol-1-yl)-2-methyl-propan-2-ol]	0.0099 µM	0.061 µM
CC(C)[C@](C)(c1ccc(-c2ccc(N)nc2)nc1)c1noc(-c2cnc(N3CCNCC3)cn2)n1 [Example 137, 5-{(R)-1,2-Dimethyl-1-[5-(3,4,5,6-tetrahydro-2H-[1,2′]bipyrazinyl-5′-yl)-[1,2,4]oxadiazol-3-yl]-propyl}-[2,3′]bipyridinyl-6′-ylamine]	0.011 µM	0.59 µM
COCCn1cc(-c2nc([C@@](C)(c3ccc(-c4ccc(N)nc4)nc3)C3CC3)no2)cn1 [Example 138, 5-((R)-1-Cyclopropyl-1-{5-[1-(2-methoxy-ethyl)-1H-pyrazol-4-yl]-[1,2,4]oxadiazol-3-yl}-ethyl)-[2,3′]bipyridinyl-6′-ylamine]	0.022 µM	0.1 µM
